{"source": "patent US8093259B2", "about": "“4-methyl-3-[[4-(3-pyridinyl)-2-pyrimidinyl]amino]-N-[5-(4-methyl-1H-imidazol-1-yl)-3-(trifluoromethyl)phenyl]-benzamide for treatment of melanoma” (Novartis AG, priority 2006, dated 2012)", "key": {"murine EphB4 kinase": {"biological_target": "T1, murine EphB4 kinase (Mus musculus, UniProt P54761)", "T1 construct": "from tissue; host or cells: mouse lung tissue", "T1 sequence (P54761 16-987)": "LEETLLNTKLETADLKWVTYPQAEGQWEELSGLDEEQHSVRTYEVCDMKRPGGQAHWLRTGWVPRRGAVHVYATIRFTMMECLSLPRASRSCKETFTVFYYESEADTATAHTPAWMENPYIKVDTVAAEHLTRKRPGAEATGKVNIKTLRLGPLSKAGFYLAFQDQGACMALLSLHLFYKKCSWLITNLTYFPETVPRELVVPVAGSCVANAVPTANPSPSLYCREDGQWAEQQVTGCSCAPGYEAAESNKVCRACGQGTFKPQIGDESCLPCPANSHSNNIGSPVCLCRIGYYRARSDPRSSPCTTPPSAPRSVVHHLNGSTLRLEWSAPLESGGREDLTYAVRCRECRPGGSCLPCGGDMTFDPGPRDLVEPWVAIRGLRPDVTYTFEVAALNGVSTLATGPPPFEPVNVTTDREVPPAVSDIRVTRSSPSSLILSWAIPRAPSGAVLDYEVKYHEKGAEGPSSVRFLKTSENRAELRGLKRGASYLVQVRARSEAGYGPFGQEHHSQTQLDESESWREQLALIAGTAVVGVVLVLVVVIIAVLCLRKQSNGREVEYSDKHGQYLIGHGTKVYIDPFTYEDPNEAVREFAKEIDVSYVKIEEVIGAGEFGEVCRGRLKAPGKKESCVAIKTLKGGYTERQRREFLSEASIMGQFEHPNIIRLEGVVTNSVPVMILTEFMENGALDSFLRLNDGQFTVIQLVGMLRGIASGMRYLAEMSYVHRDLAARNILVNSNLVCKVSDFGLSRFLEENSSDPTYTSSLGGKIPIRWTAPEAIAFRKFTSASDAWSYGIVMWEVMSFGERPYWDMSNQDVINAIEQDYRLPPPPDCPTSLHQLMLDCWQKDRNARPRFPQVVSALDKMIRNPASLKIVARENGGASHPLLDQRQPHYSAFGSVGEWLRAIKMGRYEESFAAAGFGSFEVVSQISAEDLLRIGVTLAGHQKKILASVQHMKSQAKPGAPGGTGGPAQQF", "assay": "EphB4 phosphorylation in lung tissue of mice (anti-pY Western blot of immunoprecipitates)", "format": "in vivo", "conditions": "naïve mice, 50 mg/kg p.o.", "description": "(§1) Plasma and lung samples were collected. Lung samples were split into two parts, one lobe was further processed for pharmacokinetic analysis, the other lobe was processed for analysis of phosphorylated EphB4 receptor. For controls, one group of animals was treated for 2 h with NMP (10%) PEG (90%)."}, "EphB4": {"biological_target": "T2, EphB4 (Homo sapiens, UniProt P54760)", "T2 sequence (P54760 16-987)": "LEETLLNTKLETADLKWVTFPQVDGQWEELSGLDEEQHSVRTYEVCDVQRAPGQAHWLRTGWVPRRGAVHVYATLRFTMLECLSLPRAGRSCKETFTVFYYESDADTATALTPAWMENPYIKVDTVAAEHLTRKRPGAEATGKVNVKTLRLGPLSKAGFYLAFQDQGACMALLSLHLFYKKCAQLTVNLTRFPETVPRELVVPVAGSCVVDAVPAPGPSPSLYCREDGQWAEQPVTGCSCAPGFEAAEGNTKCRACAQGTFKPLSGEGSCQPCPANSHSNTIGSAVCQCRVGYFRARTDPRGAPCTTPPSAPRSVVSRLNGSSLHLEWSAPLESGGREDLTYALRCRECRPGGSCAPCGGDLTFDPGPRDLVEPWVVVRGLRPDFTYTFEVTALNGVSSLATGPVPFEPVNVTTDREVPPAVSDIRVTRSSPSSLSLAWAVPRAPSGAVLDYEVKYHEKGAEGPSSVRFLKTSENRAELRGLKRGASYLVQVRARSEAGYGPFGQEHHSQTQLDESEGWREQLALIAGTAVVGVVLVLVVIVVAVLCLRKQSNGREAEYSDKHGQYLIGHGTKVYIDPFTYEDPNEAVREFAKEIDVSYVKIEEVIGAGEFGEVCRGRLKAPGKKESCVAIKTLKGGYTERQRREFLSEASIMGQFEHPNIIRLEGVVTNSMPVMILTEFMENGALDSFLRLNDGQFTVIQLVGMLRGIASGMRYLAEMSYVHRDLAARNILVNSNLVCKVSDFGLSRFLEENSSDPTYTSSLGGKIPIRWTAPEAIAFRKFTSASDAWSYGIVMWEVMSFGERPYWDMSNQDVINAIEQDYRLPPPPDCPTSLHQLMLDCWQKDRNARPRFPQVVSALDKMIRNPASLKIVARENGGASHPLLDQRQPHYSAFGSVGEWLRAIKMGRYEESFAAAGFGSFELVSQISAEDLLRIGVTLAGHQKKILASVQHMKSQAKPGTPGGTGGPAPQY", "assay": "Cell capture ELISA of EphB4 phosphorylation in stably transfected A375 melanoma cells stimulated with ephrinB2", "format": "cell-based", "conditions": "two independent experiments", "method": "A cell capture ELISA has been set up to quantify the amount of phosphorylated EphB4 receptor protein in cell extracts. To this purpose, A375 melanoma cells have been stably transfected with full length EphB4 and EphB4 phosphorylation was induced by the addition of the ligand ephrinB2 in the presence of vanadate. Lysates from unstimulated cells were used as negative controls. […] Measurements were done in duplicates and two independent experiments were performed. Cell lysates were prepared and the receptor protein was captured on ELISA plates. Phosphorylated receptor was detected and quantified using alkaline phosphatase coupled anti-phosphotyrosine antibodies."}, "[1]": {"conditions": "mouse, in vivo, po, 50 mg/kg", "description": "as §1"}}, "note": "Where two headings read alike, the source gives them in different places.", "data": [{"smiles": "Cc1cn(-c2cc(NC(=O)c3ccc(C)c(Nc4nccc(-c5cccnc5)n4)c3)cc(C(F)(F)F)c2)cn1", "note": "[4-Methyl-3-[[4-(3-pyridinyl)-2-pyrimidinyl]amino]-N-[5-(4-methyl-1H-imidazol-1-yl)-3-(trifluoromethyl)phenyl] benzamide]", "values": [{"measurement": "Phosphorylation of EphB4 in lung tissue", "setting": "murine EphB4 kinase; 2 h after administration", "value": "nearly abolished"}, {"measurement": "Phosphorylation of EphB4 in lung tissue", "setting": "murine EphB4 kinase; 24 h after administration", "value": "recovers to control levels"}, {"measurement": "Effect on EphB4 protein levels in lung tissue", "setting": "murine EphB4 kinase; both time points (2 h and 24 h)", "value": "No effect"}, {"measurement": "Inhibition of EphB4 phosphorylation", "setting": "EphB4", "value": "dose dependently inhibited EphB4 phosphorylation"}, {"measurement": "Compound level in lung tissue", "setting": "[1]; 2 h", "value": "40 to 50", "unit": "nmol/g"}, {"measurement": "Compound level in lung tissue", "setting": "[1]; 24 h", "value": 0.7, "unit": "nmol/g"}]}]}
